Data on 1 compound can be found in patent publication US12642777B2 (SHENZHEN CHINA RESOURCES JIUCHUANG MEDICAL AND …, priority 2020, dated 2026).

SMILES strings stand for the structures.

The conditions of data set [1]: intravenous bolus, 75 mg/m^2, ovarian cancer; cited from earlier work.
A short description of data set [2]: Pharmacokinetics and tolerated dose of intravenous mitoxantrone chemotherapy reported in a document. It counts as in vivo, human. Conditions: 75 mg/m^2 intravenous bolus versus 3143 ng×min/ml. Here is the method:
Moreover, the drug is metabolized rapidly after entering the blood, and the drug in the plasma is almost completely metabolized 60 min, 120 min at most, after the administration.

As to `O=C1c2c(O)ccc(O)c2C(=O)c2c(NCCNCCO)ccc(NCCNCCO)c21` [mitoxantrone], in data set [1], the AUC is 560 to 1700 ng·h/mL. In data set [2], the “AUC of the document as multiple of the maximum AUC in the present trial” value was 10.7-32.5 times.
